Measured values from patent publication US20240425464A1, “Substituted Monohydrazides as Potent Antifungal Agents” (University of Kentucky Research Foundation, priority 2023, published 2024).
Values after ≈ are worked out from the molar mass of the structure shown. Where two headings read alike, the source gives them in different places.

Experiments:
[1] = tested on: Candida duobushaemulonii AR Bank #394; assay: MIC determination by in vitro antifungal assay; type: cell-based
Procedure: (§1) The antifungal agent amphotericin B (AmB) was purchased from VWR (Radnor PA, USA). AmB was dissolved in DMSO at a final concentration of 5 mg/mL and was stored at −20° C., protected from light. Candida albicans American Type Culture Collection (ATCC) 10231 (strain A), C. albicans ATCC 64124 (B), and C. albicans ATCC MYA-2876 (C) were obtained from Utah State University. C. albicans ATCC 90819 (D), C. albicans ATCC MYA-2310 (E), C. albicans ATCC MYA-1237 (F), C. albicans ATCC MYA-1003 (G), Candida glabrata ATCC 2001 (H), Candida krusei ATCC 6258 (I), Candida parapsilosis ATCC 22019 (J), Cryptococcus neoformans ATCC MYA-895 (M), Aspergillus terreus ATCC MYA-3633 (N), and Aspergillus flavus ATCC MYA-3631 (0) were obtained from the American Type Culture Collection (ATCC; Manassas, VA, USA). Aspergillus nidulans ATCC 38163 (P) was obtained from University of Kentucky. Clinically derived Aspergillus fumigatus NRRL 163 (Q), A. fumigatus NRRL 5109 (R), and A. fumigatus NRRL 6113 (S) were obtained from Northern Regional Research Laboratory (NRRL). Candida auris 384 (K), C. auris 390 (L), and fungal strains 381-400 (including 10 C. auris (AR Bank #381-390), 3 Candida duobushaemulonii (AR Bank #391, AR Bank #392, and AR Bank #394), 2 Candida haemulonii (AR Bank #393 and AR Bank #395), 1 Kodameae ohmeri (AR Bank #396), 1 C. krusei (AR Bank #397), 1 Candida lusitaniae (AR Bank #398), and 2 Saccharomyces cerevisiae strains (AR Bank #399 and AR Bank #400)) were part of a larger fungal library from the AR Bank maintained by the Centers for Disease Control and Prevention (CDC; Atlanta, GA, USA). Filamentous fungi and yeasts were cultivated at 35° C. in RPMI 1640 medium (with L-glutamine, without sodium bicarbonate, Sigma-Aldrich, St. Louis, MO) buffered to a pH of 7.0 with 0.165 M morpholinepropanesulfonic acid (MOPS) buffer (Sigma-Aldrich). For cytotoxicity assays, HepG2 and the mouse macrophage cell line J774A.1 were obtained from University of Kentucky. The human embryonic kidney cell line, HEK-293, was bought from the ATCC. Mammalian cells were grown in Dulbecco's Modified Eagle's Medium (DMEM) (from VWR) with 10% fetal bovine serum (FBS) (from VWR) and 1% Pen/Strep (from ATCC). Cell lines were cultured at 37° C. with 5% CO2 and passaged by trypsinization with 0.05% trypsin: 0.53 mM EDTA (from Sigma-Aldrich).
(§2) From the actively growing yeast culture, 100 µL were then transferred to 900 μL of RPMI 1640 medium and re-adjusted to achieve OD600 of 0.12 (˜1×10^6 CFU/mL). The cell suspension was further diluted to achieve 1:100 in RPMI 1640 medium.

[2] = tested on: Candida lusitaniae AR Bank #398; assay: MIC determination by in vitro antifungal assay; type: cell-based; details: Candida strain AR Bank #398
Procedure: as §1, §2

[3] = tested on: Saccharomyces cerevisiae AR Bank #399; assay: MIC determination by in vitro antifungal assay; type: cell-based
Procedure: as §1, §2

[4] = tested on: Candida duobushaemulonii AR Bank #391; assay: MIC determination by in vitro antifungal assay; type: cell-based
Procedure: as §1, §2

[5] = tested on: Kodameae ohmeri AR Bank #396; assay: MIC determination by in vitro antifungal assay; type: cell-based; details: strain AR Bank #396
Procedure: as §1, §2

[6] = tested on: Candida haemulonii AR Bank #393; assay: MIC determination by in vitro antifungal assay; type: cell-based
Procedure: as §1, §2

[7] = tested on: Candida haemulonii AR Bank #395; assay: MIC determination by in vitro antifungal assay; type: cell-based
Procedure: as §1, §2

[8] = tested on: Candida duobushaemulonii AR Bank #392; assay: MIC determination by in vitro antifungal assay; type: cell-based
Procedure: as §1, §2

[9] = tested on: Candida krusei AR Bank #397; assay: MIC determination by in vitro antifungal assay; type: cell-based; details: Candida strain AR Bank #397
Procedure: as §1, §2

C. auris AR Bank #382 = assay: MIC determination by in vitro antifungal assay; type: cell-based, Candida auris; details: C. auris AR Bank #382
Procedure: as §1, §2

C. auris AR Bank #387 = assay: MIC determination by in vitro antifungal assay; type: cell-based, Candida auris; details: C. auris AR Bank #387
Procedure: as §1, §2

C. auris AR Bank #383 = assay: MIC determination by in vitro antifungal assay; type: cell-based, Candida auris; details: C. auris AR Bank #383
Procedure: as §1, §2

C. auris AR Bank #385 = assay: MIC determination by in vitro antifungal assay; type: cell-based, Candida auris; details: C. auris AR Bank #385
Procedure: as §1, §2

C. auris AR Bank #386 = assay: MIC determination by in vitro antifungal assay; type: cell-based, Candida auris; details: C. auris AR Bank #386
Procedure: as §1, §2

C. auris AR Bank #389 = assay: MIC determination by in vitro antifungal assay; type: cell-based, Candida auris; details: C. auris AR Bank #389
Procedure: as §1, §2

C. auris AR Bank #388 = assay: MIC determination by in vitro antifungal assay; type: cell-based, Candida auris; details: C. auris AR Bank #388
Procedure: as §1, §2

C. auris AR Bank #381 = assay: MIC determination by in vitro antifungal assay; type: cell-based, Candida auris; details: C. auris AR Bank #381
Procedure: as §1, §2

[10] = tested on: panel of ten C. auris strains (AR Bank #381-390); assay: MIC determination, summary over the C. auris panel; type: cell-based, Candida auris; details: Candidozyma auris; against all ten C. auris strains tested (AR Bank #381-390)
Procedure: as §1, §2

[11] = Candidozyma duobushaemuli, read-out: MIC
[12] = Candidozyma haemuli, read-out: MIC
[13] = Candidozyma auris, read-out: MIC

| Structure (SMILES) | MIC [1] | MIC [2] | MIC [3] | MIC [4] | MIC [5] | MIC [6] | MIC [7] | MIC [8] | MIC [9] | MIC (C. auris AR Bank #382) | MIC (C. auris AR Bank #387) | MIC (C. auris AR Bank #383) | MIC (C. auris AR Bank #385) | MIC (C. auris AR Bank #386) | MIC (C. auris AR Bank #389) | MIC (C. auris AR Bank #388) | MIC (C. auris AR Bank #381) | also measured |
| --- | --- | --- | --- | --- | --- | --- | --- | --- | --- | --- | --- | --- | --- | --- | --- | --- | --- | --- |
| O=C(NNc1cccc(Cl)c1)c1ccccn1 [Compound 2b] | 0.12 μg/mL^−1 | 0.98 μg/mL^−1 | 0.98 μg/mL^−1 | 0.24 μg/mL^−1 | 0.12 μg/mL^−1 | 0.12 μg/mL^−1 | ≤0.06 μg/mL^−1 | 0.24 μg/mL^−1 | 0.12 μg/mL^−1 | 0.49 μg/mL^−1 | 0.49 μg/mL^−1 | 0.49 μg/mL^−1 | 0.49 μg/mL^−1 | 0.24 μg/mL^−1 | 0.49 μg/mL^−1 | 0.49 μg/mL^−1 | 0.98 μg/mL^−1 | – |
| O=C(NNc1ccc(Cl)cc1)c1cnccn1 [Compound 9e] | 1.95 μg/mL^−1 | 3.9 μg/mL^−1 | 3.9 μg/mL^−1 | 1.95 μg/mL^−1 | 1.95 μg/mL^−1 | 1.95 μg/mL^−1 | 3.9 μg/mL^−1 | 1.95 μg/mL^−1 | 1.9 μg/mL^−1 | 13.6 μg/mL^−1 | 13.6 μg/mL^−1 | 3.9 μg/mL^−1 | 31.3 μg/mL^−1 | 7.8 μg/mL^−1 | 7.8 μg/mL^−1 | 7.8 μg/mL^−1 | 7.8 μg/mL^−1 | – |
| O=C(NNc1cc(F)ccc1F)c1ccccn1 [Compound 2h] | – | – | – | – | – | – | – | – | – | – | – | – | – | – | – | – | – | MIC [1, 11]: 0.24 µg/mL (≈ 0.963 µM); MIC ([2]; Clavispora lusitaniae, read-out: MIC): 0.49 µg/mL (≈ 1.97 µM); MIC ([3]; read-out: MIC): 1.95 µg/mL (≈ 7.82 µM); MIC [4, 11]: 0.49 µg/mL (≈ 1.97 µM); MIC ([5]; read-out: MIC): 0.12 µg/mL (≈ 0.482 µM); MIC [6, 12]: 0.98 µg/mL (≈ 3.93 µM); MIC [7, 12]: 0.24 µg/mL (≈ 0.963 µM); MIC [8, 11]: 0.24 µg/mL (≈ 0.963 µM); MIC ([9]; Pichia kudriavzevii, read-out: MIC): 0.24 µg/mL (≈ 0.963 µM); MIC [10]: 0.06 to 1.95 µg/mL (≈ 0.241 to 7.82 µM); MIC (C. auris AR Bank #382; [13]): 0.24 µg/mL (≈ 0.963 µM); MIC (C. auris AR Bank #387; [13]): 0.49 µg/mL (≈ 1.97 µM); MIC (C. auris AR Bank #383; [13]): 0.49 µg/mL (≈ 1.97 µM); MIC (C. auris AR Bank #385; [13]): 0.49 µg/mL (≈ 1.97 µM); MIC (C. auris AR Bank #386; [13]): 0.12 µg/mL (≈ 0.482 µM); MIC (C. auris AR Bank #389; [13]): 0.49 µg/mL (≈ 1.97 µM); MIC (C. auris AR Bank #388; [13]): 0.49 µg/mL (≈ 1.97 µM); MIC (C. auris AR Bank #381; [13]): 1.95 µg/mL (≈ 7.82 µM) |
| O=C(NNc1ccc(Cl)cc1)c1ccccn1 [Compound 2e] | 0.49 μg/mL^−1 | 0.98 μg/mL^−1 | 0.98 μg/mL^−1 | 0.98 μg/mL^−1 | 0.24 μg/mL^−1 | 0.49 μg/mL^−1 | 0.12 μg/mL^−1 | 0.98 μg/mL^−1 | 0.24 μg/mL^−1 | 3.9 μg/mL^−1 | 1.95 μg/mL^−1 | 1.95 μg/mL^−1 | 1.95 μg/mL^−1 | 0.98 μg/mL^−1 | 0.98 μg/mL^−1 | 1.95 μg/mL^−1 | 1.95 μg/mL^−1 | – |
